Where two headings read alike, the source gives them in different places.
What was measured:
[1] = tested on: A549 human non-small cell lung cancer (NSCLC) cell line; assay: Neutral red (NR) uptake cytotoxicity assay, A549; type: cell-based; details: for IC50: Homo sapiens, A549, 72 h, neutral red assay, 72 h incubation; for selectivity index A549: IC50 in CRL2120 normal fibroblasts divided by IC50 in A549
Description: (§1) Six human cancer cell lines and one normal cell line were used in this study. They included A549 human non-small cell lung cancer (NSCLC) cell line, obtained from the Institute for Fermentation, Osaka (IFO, Japan) and provided by Prof. Dr. Tansu Koparal (Anadolu University, Eskisehir, Turkey), SPC212 human mesothelioma cell line obtained from American Type Culture Collection (ATCC) and provided by Dr. Asuman Demiroğlu Zergeroğlu (Gebze Technical University, Kocaeli, Turkey), DLD-1 colorectal adenocarcinoma cell lines obtained from ATCC (CCL-221), Caco2 colorectal adenocarcinoma cells (ATCC, HTB-37) obtained from the ŞAP Institute of Turkey (Ankara), HepG2 hepatocarcinoma cells (ATCC, HB-8065) and MCF-7 breast adenocarcinoma cells (ATCC, HTB-22) were provided by Prof. Dr. Tansu Koparal (Anadolu University, Eskisehir, Turkey). The normal CRL2120 human skin fibroblasts were obtained from ATCC [CCD1094Sk (ATCC, CRL-2120)]. The cells were maintained as a monolayer in DMEM medium (Sigma-aldrich, Munich, Germany) medium supplemented with 10% fetal calf serum and 1% penicillin (100 U/mL)-streptomycin (100 μg/mL) in a humidified 5% CO2 atmosphere at 37 °C.
(§2) The cytotoxicity of samples was performed by NR uptake assay as previously described. This method is based on the ability of viable cells to incorporate and bind the supravital dye NR in the lysosomes. […] Briefly, cells were detached by treatment with 0.25% trypsin/EDTA (Invitrogen) and an aliquot of 1 × 10^4 cells was placed in each well of a 96-well cell culture plate (Thermo Scientific, Germany) in a total volume of 200 μL. The cells were allowed to attach overnight and subsequently treated with different concentrations of the 14 compounds. Each of the studied samples was immediately added in varying concentrations in additional 100 μL of culture medium to obtain a total volume of 200 μL/well. After 72 h incubation in humidified 5% CO2 atmosphere at 37 °C, the medium was removed and 200 μL fresh medium containing 50 μg/mL NR was added to each well and incubation continued for an additional 3 h at 37 °C in 5% CO2 atmosphere. The dye medium was then removed and each well was then washed rapidly with 200 μL phosphate buffer saline (PBS) followed by addition of 200 μL of acetic acid-water-ethanol in water (1:49:50). The plates were kept for 15 min at room temperature to extract the dye and then shaken for a few minutes on a GFL 3012 shaker (Gesellschaft für Labortechnik mbH, Burgwedel, Germany). Absorbance was measured on ELx 808 Ultra Microplate Reader (Biotek) equipped with a 540 nm filter. Each assay was done at least three times, with three replicates each. The viability was evaluated based on a comparison with untreated cells. The IC50 values represent the sample’s concentrations required to inhibit 50% of cell proliferation and were calculated from a calibration curve by linear regression using Microsoft Excel.

[2] = tested on: SPC212 human mesothelioma cell line; assay: Neutral red (NR) uptake cytotoxicity assay, SPC212; type: cell-based; details: for IC50: Homo sapiens, 72 h, neutral red assay, 72 h incubation, read-out: IC50 SPC212; for selectivity index SPC212: IC50 in CRL2120 normal fibroblasts divided by IC50 in SPC212
Description: as §1
as §2, with “lysosomes. The procedure is cheaper and more sensitive than other cytotoxicity tests.” for “lysosomes.”

[3] = tested on: DLD-1 colorectal adenocarcinoma cell lines; assay: Neutral red (NR) uptake cytotoxicity assay, DLD-1; type: cell-based, human; details: for IC50: Homo sapiens, DLD-1, neutral red assay, 72 h incubation, read-out: IC50 DLD-1
Description: as §1
as §2, with “lysosomes. The procedure is cheaper and more sensitive than other cytotoxicity tests.” for “lysosomes.”

[4] = tested on: Caco2 colorectal adenocarcinoma cells; assay: Neutral red (NR) uptake cytotoxicity assay, Caco-2; type: cell-based, human; details: Homo sapiens, Caco-2; neutral red assay, 72 h incubation
Description: as §1
as §2, with “lysosomes. The procedure is cheaper and more sensitive than other cytotoxicity tests.” for “lysosomes.”

[5] = tested on: MCF-7 breast adenocarcinoma cells; assay: Neutral red (NR) uptake cytotoxicity assay, MCF-7; type: cell-based, human; details: for IC50: neutral red assay, 72 h incubation, read-out: IC50 MCF-7
Description: as §1
as §2, with “lysosomes. The procedure is cheaper and more sensitive than other cytotoxicity tests.” for “lysosomes.”

[6] = tested on: HepG2 hepatocarcinoma cells; assay: Neutral red (NR) uptake cytotoxicity assay, HepG2; type: cell-based, human; details: for IC50: Homo sapiens, HepG2, neutral red assay, 72 h incubation, read-out: IC50 HepG2
Description: as §1
as §2, with “lysosomes. The procedure is cheaper and more sensitive than other cytotoxicity tests.” for “lysosomes.”

[7] = tested on: normal CRL2120 human skin fibroblasts; assay: Neutral red (NR) uptake cytotoxicity assay, normal CRL2120 fibroblasts; type: cell-based; details: Skin fibroblast, 72 h incubation
Description: as §1
as §2, with “lysosomes. The procedure is cheaper and more sensitive than other cytotoxicity tests.” for “lysosomes.”

[8] = tested on: six tested cancer cell lines (A549, SPC212, DLD-1, Caco-2, MCF-7, HepG2); assay: Neutral red uptake assay, statements over the six tested cancer cell lines; type: cell-based, human; details: for IC50: Homo sapiens, bound valid for all six cancer cell lines, neutral red assay; for tested cancer cell lines in which recordable IC50 values were obtained: out of six cancer cell lines
Description: as §1
as §2, with “lysosomes. The procedure is cheaper and more sensitive than other cytotoxicity tests.” for “lysosomes.”

[9] = Neutral red (NR) uptake cytotoxicity assay, Caco-2; type: cell-based, human; details: human; IC50 in CRL2120 normal fibroblasts divided by IC50 in Caco-2; read-out: selectivity index Caco-2 (converted)
Description: as §1
as §2, with “lysosomes. The procedure is cheaper and more sensitive than other cytotoxicity tests.” for “lysosomes.”

Row | IC50 [8] [µM] | tested cancer cell lines in which recordable IC50 values were obtained [8] | Compound | IC50 [1] [µM] | IC50 [2] [µM] | IC50 [3] [µM] | IC50 [4] [µM] | IC50 ([5]; Homo sapiens, MCF7, 72 h) [µM] | IC50 [6] [µM] | IC50 [7] [µM] | selectivity index A549 [1] | selectivity index SPC212 [2] | selectivity index DLD-1 ([3]; IC50 in CRL2120 normal fibroblasts divided by IC50 in DLD-1) | selectivity ratio at 72 h [9] | selectivity index MCF-7 ([5]; IC50 in CRL2120 normal fibroblasts divided by IC50 in MCF-7) | IC50 [5] [µM] | selectivity index HepG2 ([6]; IC50 in CRL2120 normal fibroblasts divided by IC50 in HepG2) | selectivity indexes (CRL2120 vs carcinoma cells), lower bound over the cancer cell lines ([8]; IC50 CRL2120 / IC50 cancer cell line)
1 | > 120 |  | CCC1=C(O)C(=O)C=C(O)C1=O [Compound 5, 2,5-dihydroxy-3-ethyl-2,5-cyclohexadiene-1,4-dione] | > 238 | > 238 | > 238 | > 238 | > 238 | > 238 | 95.5 ± 5.64 |  |  |  |  |  |  |  | 
2 |  | 2/6 | Cc1cc(O)c2c(c1)C(=O)c1cccc(O)c1C2=O [Compound 1, chrysophanol] | 52.2 ± 5.51 | 146 ± 10.6 | > 157 | > 157 | > 157 | > 157 | > 157 | > 3.01 | > 1.08 |  |  |  |  |  | 
3 | > 120 |  | CCCCC=CCCCCCCCCCCCCCC1=C(OC)C(=O)C=C(OC)C1=O [Compound 12, 2,5 dimethoxy-6-(14-nonadecenyl)-1,4-benzoquinone] | > 129 | > 129 | > 129 | > 129 | > 129 | > 129 | > 129 |  |  |  |  |  |  |  | 
4 | < 100 |  | CCCC/C=C\CCCCCCCCCCCCCC1=C(OC(C)=O)C(OC(C)=O)C(C)=C(OC(C)=O)C1OC(C)=O (stereo not shown) [Compound 13, 1,2,4,5-tetraacetate-3-methyl-6-(14-nonadecenyl)-cyclohexadi-2,5-diene] | 47.5 ± 3.56 | 36.2 ± 3.08 | 25.1 ± 1.5 | 24.6 ± 2.71 | < 10 | 18.2 ± 1.46 | 93.2 ± 1.17 | 1.96 | 2.57 | 3.72 | 3.78 | 10.08 | 9.25 ± 0.16 | 5.13 | > 1.96
5 | > 120 |  | COC(=O)c1c(O)cc2c(c1C)C(=O)c1c(O)cc(O)cc1C2=O [Compound 3, 3,6,8-trihydroxy-1-methylanthraquinone-2-carboxylic acid methyl ester] | > 122 | > 122 | > 122 | > 122 | > 122 | > 122 | > 122 |  |  |  |  |  |  |  | 
6 |  | 1/6 | CCCC1=C(O)C(=O)C=C(O)C1=O [Compound 6, 2,5-dihydroxy-3-propyl-2,5-cyclohexadiene-1,4-dione] | > 222 | > 222 | > 222 | > 222 | 162 ± 11.4 | > 222 | > 222 |  |  |  |  |  |  |  | 

Source: paper PMC5175396, “Cytotoxicity of Plumbagin, Rapanone and 12 other naturally occurring Quinones from Kenyan Flora towards human carcinoma cells” (BMC Pharmacology & Toxicology, 2016)
